We go through 3 molecules from patent publication US12648946B2, “Combination of antibody-pyrrolobenzodiazepine derivative conjugate and PARP inhibitor” (DAIICHI SANKYO COMPANY, LIMITED, priority 2019, dated 2026).

Structures are written as SMILES. pIC50: −log10 of the molar value. Where two headings read alike, the source gives them in different places.

Data set [1] has as its system human ovarian cancer cell line OV-90. The data set can be described thus: Antitumor test (4), subcutaneous xenograft. It is filed as in vivo, mouse. The conditions noted are these: single administration.
Experimental: Mouse: Five- to six-week-old female BALB/c nude mice (Charles River Laboratories Japan, Inc.) were subjected to experiment.
Assay and calculation formula: In all of the studies, the major axis and minor axis of a tumor were measured twice a week by using an electronic digital caliper (CD-15CX, Mitutoyo Corp.), and the tumor volume (mm^3) was calculated. The calculation formula is as shown below.
Each of the anti-CLDN6 antibody-drug conjugate ADC1, the anti-HER2 antibody-drug conjugate ADC2, and the anti-TROP2 antibody-drug conjugate ADC3 was diluted with ABS buffer (10 mM acetate buffer (pH 5.5), 5% sorbitol), and a liquid volume of 10 mL/kg was intravenously administered into the tail vein. Olaparib was dissolved in Dimethyl sulfoxide (DMSO), diluted with 10% 2-hydroxy-propyl-β-cyclodextrin (Sigma-Aldrich Co. LLC)/Dulbecco's Phosphate-Buffered Saline, and then a liquid volume of 10 mL/kg was intraperitoneally administered. Talazoparib was dissolved in DMSO, diluted with 10% N,N-dimethylacetamide/5% Kolliphor HS15 (Sigma-Aldrich Co. LLC)/Dulbecco's Phosphate-Buffered Saline, and then a liquid volume of 10 mL/kg was orally administered. […]
In data set [2] the test system is human lung cancer cell line Calu-6. The data set can be described thus: Cell growth inhibition test (1). It is filed as cell-based. The following applies: Calu-6, 144 h. The method, then: The human lung cancer cell line Calu-6 obtained from ATCC (American Type Culture Collection) was used for evaluation. Cells were prepared with MEM containing 10% fetal bovine serum (GE Healthcare), MEM Non-Essential Amino Acids Solution (Thermo Fisher Scientific), and Sodium Pyruvate (Thermo Fisher Scientific) (Thermo Fisher Scientific; hereinafter, referred to as EMEM medium) to reach 1.25×10^4 cells/mL, and 80 μL portions of them were added into a 96-well cell culture microplate. After addition of the cells, the cells were cultured at 37° C. and 5% CO2 overnight.
(§1) On the next day, 10 μL portions of pyrrolobenzodiazepine derivative A, B, or C diluted with EMEM medium to 100 pM, 50 pM, 25 pM, 12.5 pM, 6.25 pM, 3.13 pM, 1.56 pM, or 0.78 pM were added to the microplate. To each well without any pyrrolobenzodiazepine derivative, 10 μL of EMEM medium was added. Further, 10 μL portions of olaparib prepared with EMEM medium to reach 2 μM were added to the microplate. To each well without olaparib, 10 μL of EMEM medium was added. Thereafter, the microplate was cultured at 37° C. and 5% CO2 for 6 days. After culturing, the microplate was taken out of the incubator, and left to stand at room temperature for 30 minutes. CellTiter-Glo Luminescent Cell Viability Assay (Promega Corporation) in an amount equivalent to that of the culture solution was added, and stirred using a plate mixer. The microplate was left to stand at room temperature for 10 minutes, and thereafter the amount of emission was measured by using a plate reader (PerkinElmer).
(§2) Cell survival rates in wells with derivative A, B, or C were calculated by using the following formula.
(§3) [formula] • a: Mean value of amounts of emission from wells with derivative A, B, or C • b: Mean value of amounts of emission from wells with medium • IC50 values were calculated by using the following formula.
(§4) [formula] • a: Concentration of derivative A, B, or C, a • b: Concentration of derivative A, B, or C, b • c: Cell survival rate when derivative A, B, or C of concentration a was added • d: Cell survival rate when derivative A, B, or C of concentration b was added • a and b satisfy a>b at points sandwiching a cell survival rate of 50%.
Cell survival rates in wells with derivative A, B, or C added together with 2 μM olaparib were calculated by using the following formula.
[formula] a: Mean value of amounts of emission from wells with derivative A, B, or C added together with 2 μM olaparib • b: Mean value of amounts of emission from wells with 2 μM olaparib • IC50 values were calculated by using the following formula.
[formula] • a: Concentration of derivative A, B, or C, a • b: Concentration of derivative A, B, or C, b • c: Cell survival rate when derivative A, B, or C of concentration a and 2 μM olaparib were added • d: Cell survival rate when derivative A, B, or C of concentration b and 2 μM olaparib were added • a and b satisfy a>b at points sandwiching a cell survival rate of 50%.

The subject of data set [3] is human pharyngeal cancer cell line FaDu. The data set can be described thus: Cell growth inhibition test (2). It is filed as cell-based. The following applies: 144 h. The method, then:
(§5) The human pharyngeal cancer cell line FaDu obtained from ATCC (American Type Culture Collection) was used for evaluation. Cells were prepared with MEM containing 10% fetal bovine serum (GE Healthcare), MEM Non-Essential Amino Acids Solution (Thermo Fisher Scientific), and Sodium Pyruvate (Thermo Fisher Scientific) (Thermo Fisher Scientific; hereinafter, referred to as EMEM medium) to reach 6.25×10^3 cells/mL, and 80 μL portions of them were added into a 96-well cell culture microplate. After addition of the cells, the cells were cultured at 37° C. and 5% CO2 overnight.
as §1, with “reach 1” for “reach 2”
Cell survival rates in wells with derivative A, B, or […] were calculated by using the following formula.
as §3, §4
Cell survival rates in wells with derivative A, B, or C added together with 1 μM olaparib were calculated by using the following formula.
[formula] • a: Mean value of amounts of emission from wells with derivative A, B, or C added together with 1 μM olaparib • b: Mean value of amounts of emission from wells with 1 μM olaparib • IC50 values were calculated by using the following formula.
[formula] • a: Concentration of derivative A, B, or C, a • b: Concentration of derivative A, B, or C, b • c: Cell survival rate when derivative A, B, or C of concentration a and 1 μM olaparib were added • d: Cell survival rate when derivative A, B, or C of concentration b and 1 μM olaparib were added • a and b satisfy a>b at points sandwiching a cell survival rate of 50%.

Data set [4] has the same test system. The data set can be described thus: Cell growth inhibition test (3). The conditions noted are these: 144 h. It is filed as cell-based. The method, then:
as §5
as §1, with “talazoparib” for “olaparib”, “nM” for “μM”, “talazoparib,” for “olaparib,”
as §2, §3, §4
Cell survival rates in wells with derivative A, B, or C added together with 2 nM talazoparib were calculated by using the following formula.
[formula] • a: Mean value of amounts of emission from wells with derivative A, B, or C added together with 2 nM talazoparib • b: Mean value of amounts of emission from wells with 2 nM talazoparib • IC50 values were calculated by using the following formula.
[formula] • a: Concentration of derivative A, B, or C, a • b: Concentration of derivative A, B, or C, b • c: Cell survival rate when derivative A, B, or C of concentration a and 2 nM talazoparib were added • d: Cell survival rate when derivative A, B, or C of concentration b and 2 nM talazoparib were added • a and b satisfy a>b at points sandwiching a cell survival rate of 50%.

Where [5] appears, read: read-out: IC50, growth-suppressing effect, added singly, Calu-6, 6 days.
Where [6] appears, read: read-out: IC50, growth-suppressing effect, added together with 2 μM olaparib, Calu-6, 6 days.
[7] abbreviates: read-out: IC50, growth-suppressing effect, added singly, FaDu, 6 days (test 2).
[8] abbreviates: read-out: IC50, growth-suppressing effect, added together with 1 μM olaparib, FaDu, 6 days.
Setting [9] is: read-out: IC50, growth-suppressing effect, added singly, FaDu, 6 days (test 3).
Where [10] appears, read: read-out: IC50, growth-suppressing effect, added together with 2 nM talazoparib, FaDu, 6 days.

`NC(=O)c1cccc2cn(-c3ccc([C@@H]4CCCNC4)cc3)nc12` [niraparib]: the “findings such as weight loss” value in data set [1] (Day 21, OV-90 model) is given as “no particularly significant finding such as weight loss”. Further, in data set [1] (niraparib 75 mg/kg oral for 5 days from Day 0, Day 21, OV-90), the “tumor growth inhibition (TGI)” value was 1%.
For `COc1ccc(C2=CN3C(=O)c4cc(OC)c(OCCCOc5cc6c(cc5OC)C(=O)N5CC7(CC7)C[C@H]5C=N6)cc4NC[C@@H]3C2)cc1` [derivative C, (11a′S)-7′-Methoxy-8′-(3-{[(11aS)-7-methoxy-2-(4-methoxyphenyl)-5-oxo-5,10,11,11a-tetrahydro-1H-pyrrolo[2,1-c][1,4]benzodiazepin-8-yl]oxy}propoxy)-1′,11a′-dihydro-5′H-spiro[cyclopropane-1,2′-pyrrolo[2,1-c][1,4]benzodiazepine]-5′-one], the pIC50 in data set [2] (setting [5]) was 9.95; in data set [2] (setting [6]), 10.05; in data set [3] (setting [7]) it was 10.14; in data set [3] (setting [8]), 10.35; in data set [4] (setting [9]) it was 10.08; in data set [4] (setting [10]) it was 10.29.
For the molecule `COc1cc2c(cc1OCCCCCOc1cc3c(cc1OC)C(=O)N1CC4(CC4)C[C@H]1CN3)N=C[C@@H]1CC3(CC3)CN1C2=O` [derivative B, (11a′S)-7′-Methoxy-8′-[(5-{[(11a′S)-7′-methoxy-5′-oxo-5′,11a′-dihydro-1′H-spiro[cyclopropane-1,2′-pyrrolo[2,1-c][1,4]benzodiazepine]-8′-yl]oxy}pentyl)oxy]-1′,10′,11′,11a′-tetrahydro-5′H-spiro[cyclopropane-1,2′-pyrrolo[2,1-c][1,4]benzodiazepine]-5′-one], the pIC50 was 9.92 in data set [2] (setting [5]); 10.10 in data set [2] (setting [6]); 9.91 in data set [3] (setting [7]); 10.14 in data set [3] (setting [8]); 9.92 in data set [4] (setting [9]); 10.09 in data set [4] (setting [10]).
